Results reported in patent US20200009118A1, “COMPOSITIONS AND METHODS FOR THE TREATMENTOF NEURODEGENERATIVE AND OTHER DISEASES” (Glialogix, Inc., priority 2017, published 2020).

Legend:
2D2-TCR MOG (2D2) mice = experiment: 2D2 mouse model of optic neuritis, myelin staining of the optic nerve; type: in vivo; conditions: for Number of animals, average myelin content score Low / Number of animals, average myelin content score high / Number of animals, average myelin content score moderate: sulfasalazine 200 mg/kg or memantine 5 mg/kg IP BID
Source text: This model serves as an inducible model of optic neuritis with a high rate of penetrance. The development of optic neuritis was monitored by animal observation and histopathology.
Female 2D2 (strain C57BL/6-Tg(Tcra2D2,Tcrb2D2)1Kuch/J) and WT mice (C57BL/6) were purchased from The Jackson Laboratory. Each cohort size was 14 animals. Mice were delivered to Ophthy-DS (Kalamazoo, Mich.) under the supervision of Renovo Neural (Cleveland, Ohio) at 8-12 weeks of age and then acclimated for an additional 4 weeks before beginning the experiment. Animals were housed in pathogen-free, individually-ventilated, enriched cages on a 12 h:12 h light:dark cycle with food and water ad libitum. Mice were monitored daily for welfare and symptoms of optic neuritis.
After 4 weeks of acclimation, animals were randomized by weight into 4 groups of 14 animals each. To induce optic neuritis, 200 ng of Pertussis toxin was injected into the 2D2 animals on days 1 and 3 as described by Guan et al. Dosing of vehicle or treatment compounds began at day 1. The four cohorts are: • (1) WT mice (C57BL/6) treated with vehicle (200 μl saline IP, BID). This cohort serves as a control for the readouts of optic neuritis disease. • (2) 2D2 mice vehicle treated with vehicle (200 μl saline IP, BID). […] The memantine-treated group served as a control for anti-glutamatergic therapy in the 2D2 model of optic neuritis.
On day 30, animals were euthanized and perfused. Optic nerves and retinas were dissected out and embedded in paraffin and sections mounted on slides. 5-7 sections of the optic nerve (from one eye) from ten animals in each cohort were stained by Toluidine Blue. Histopathological analysis of the slides and quantitation of the myelin staining intensity was performed blinded by a board-certified pathologist, Dr. Igor Polyakov (Minneapolis, Minn.). Staining intensity of each slide was graded as either low, moderate or high. Both peripheral and central sections of the optic nerve were graded. The intensity of the myelin staining between the cohorts on a per section and a per animal basis was compared using chi-square and Fishers' exact test with a p<0.05 considered significant.
On a per animal basis, this yielded 20 scores per cohort: average score per section×2 scores per animal (peripheral or central)×10 animals per cohort. On a per section basis, this yielded approximately 110 score per cohort: score per section×5-7 sections per animal×2 scores per section (peripheral or central)×10 animals per cohort.

[1] = system: xCT mRNA in primary rat astrocyte cells; experiment: qPCR of xCT mRNA in primary astrocytes; type: cell-based
Method: (§1) Primary rat astrocyte cells were purchased from All Cells (Catalog #RCTX-001F, Alameda, Calif.), thawed and resuspended in 13.4 ml of DMEM media (Catalog #12-614F, Lonza, Allendale, N.J.) supplemented with 15% v/v FBS (Catalog #F4135, Sigma-Aldrich, St. Louis, Mo.) and 560 μL aliquoted into wells in a 24-well plate. Cells were incubated at 37° C. with 5% CO2. For each qPCR experiment, 2-3 wells (approximately 42,000-63,000 cells) were transferred to a new 24-well plate with fresh astrocyte media, composed of 50% v/v DMEM, 50% v/v Neurobasal media (Catalog #12348-017), Life Technologies, supplemented with 2 mM glutamine, 300 μM L-cystine. Following 24 hours, cells were then mixed and aliquoted into 24 well plates at approximately 10,000 cells per well in the same media. Compounds to be tested were then added at the indicated concentrations and cells harvested 18 hours later by washing once with PBS (Catalog #P5493, Sigma-Aldrich) and then treated with 300 μl of StemProAccutase cell dissociation reagent (Catalog #A11105-01, Life Technologies) and incubated for 5-10 minutes at 37° C. PBS (300 μl) was added and the cells spun down in a microfuge for 5 minutes at 2,000×g at 4° C. The supernatant was removed and mRNA was isolated from the cells by using the Purelink microscale RNA extraction kit (Catalog #12183016, Life Technologies) according to the manufacturer's instructions. The mRNA resuspended in 12-22 μl of RNase-free water. cDNA was prepared by use of the Superscript VILO kit (Catalog #11755050, Life Technologies) according to the manufacturer's instructions. The cDNA was eluted in a final volume of 20 μl RNase-free water in and 4 μl was used for each qPCR reaction. qPCR reactions and primers were as described in Example 11.
(§2) To determine if tunicamycin increased levels of xCT mRNA, Tunicamycin (5 ng/ml) was added to the primary astrocyte cell cultures in astrocyte media. xCT gene expression was determined by qPCR after 18 hours of exposure to tunicamycin.
(§3) The Cycle threshold is abbreviated Ct. The change in Ct equals [Ct (minus test agent)−Ct (plus test agent)]. Changes in Ct of the test genes xCT and Lcn-2 are normalized by subtracting the change in Ct of the control gene, either gamma-actin or Hypoxanthine-guanine phosphoribosyl transferase (HPRT). Ct values are converted to absolute values by the formula: absolute value=2^^(normalized change in Ct). Absolute values are converted to percent change by multiplying the absolute value by 100.
(§4) Using the methods described in Example 11, various agents known to cause activation of neuroinflammatory cells and/or cause or reflect stress and damage to neurons, axons and/or oligodendrocytes were tested for causing an increase in xCT levels in primary rat astrocytes.

[2] = system: Lcn-2 mRNA in primary rat astrocyte cells; experiment: qPCR of Lcn-2 mRNA in primary astrocytes; type: cell-based; conditions: astrocyte media
Method: as §1, §2, §3, §4

[3] = Total (central + peripheral, 20 scores), day 30
[4] = per section basis, Central Region, day 30
[5] = per section basis, Peripheral Region, day 30
[6] = per section basis, Total, day 30
[7] = 1 ng/ml, astrocyte media, control gene HPRT
[8] = 1 ng/ml, astrocyte media, control gene gamma-actin
[9] = 100 ng/ml, astrocyte media, control gene HPRT
[10] = 100 ng/ml, astrocyte media, control gene gamma-actin
[11] = 5 ng/ml, astrocyte media, 18 hours
[12] = 25 ng/ml, astrocyte media, control gene HPRT
[13] = 25 ng/ml, astrocyte media, control gene gamma-actin
[14] = 5 μM, astrocyte media, control gene gamma-actin
[15] = 50 μM, astrocyte media, control gene gamma-actin

With `CC12CC3CC(C)(C1)CC(N)(C3)C2` [memantine] the “Number of animals, average myelin content score Low” value (2D2-TCR MOG (2D2) mice; Central Region, day 30) was 0, the “Number of animals, average myelin content score high” value (2D2-TCR MOG (2D2) mice; Central Region, day 30) was 3 and the “Number of animals, average myelin content score moderate” value (2D2-TCR MOG (2D2) mice; Central Region, day 30) was 7. The “Number of animals, average myelin content score Low” value (2D2-TCR MOG (2D2) mice; Peripheral Region, day 30) was 2, the “Number of animals, average myelin content score high” value (2D2-TCR MOG (2D2) mice; Peripheral Region, day 30) was 3 and the “Number of animals, average myelin content score moderate” value (2D2-TCR MOG (2D2) mice; Peripheral Region, day 30) was 5. For the same compound, the “Number of animal scores, myelin content High” value (2D2-TCR MOG (2D2) mice; [3]) was 6, the “Number of animal scores, myelin content Low” value (2D2-TCR MOG (2D2) mice; [3]) was 2 and the “Number of animal scores, myelin content Moderate” value (2D2-TCR MOG (2D2) mice; [3]) was 12. The “myelin content compared to the vehicle-treated 2D2 animals” value (2D2-TCR MOG (2D2) mice; optic nerve, day 30) was “highly significant increase in myelin content”, the “Number of sections, myelin content Low” value (2D2-TCR MOG (2D2) mice; [4]) was 0 and the “Number of sections, myelin content high” value (2D2-TCR MOG (2D2) mice; [4]) was 14. The “Number of sections, myelin content moderate” value (2D2-TCR MOG (2D2) mice; [4]) was 41, the “Number of sections, myelin content Low” value (2D2-TCR MOG (2D2) mice; [5]) was 10 and the “Number of sections, myelin content high” value (2D2-TCR MOG (2D2) mice; [5]) was 14. The “Number of sections, myelin content moderate” value (2D2-TCR MOG (2D2) mice; [5]) was 31, the “Number of section scores, myelin content High” value (2D2-TCR MOG (2D2) mice; [6]) was 28 and the “Number of section scores, myelin content Low” value (2D2-TCR MOG (2D2) mice; [6]) was 10. For the same compound, the “Number of section scores, myelin content Moderate” value (2D2-TCR MOG (2D2) mice; [6]) was 72, the “Percent scores, Myelin content-Total High” value (2D2-TCR MOG (2D2) mice; per-animal basis) was 30% and the “Percent scores, Myelin content-Total Low” value (2D2-TCR MOG (2D2) mice; per-animal basis) was 10%. The “Percent scores, Myelin content-Total Moderate” value (2D2-TCR MOG (2D2) mice; per-animal basis) was 60%, the “Percent scores, Myelin content-Total High” value (2D2-TCR MOG (2D2) mice; per-section basis) was 25% and the “Percent scores, Myelin content-Total Low” value (2D2-TCR MOG (2D2) mice; per-section basis) was 9%. The “Percent scores, Myelin content-Total Moderate” value (2D2-TCR MOG (2D2) mice; per-section basis) was 65%.
With IL1-beta: inflammatory cytokine the “xCT, Change in Ct normalized to control gene” value [1, 7] was 1.536, the “xCT, Fold change normalized” value [1, 7] was 2.90 and the “xCT, Percent change normalized” value [1, 7] was 290%. For the same compound, the “xCT, Change in Ct normalized to control gene” value [1, 8] was 1.538, the “xCT, Fold change normalized” value [1, 8] was 2.90 and the “xCT, Percent change normalized” value [1, 8] was 290%. For the same compound, the “xCT, Change in Ct normalized to control gene” value [1, 9] was 1.515, the “xCT, Fold change normalized” value [1, 9] was 2.86 and the “xCT, Percent change normalized” value [1, 9] was 286%. For the same compound, the “xCT, Change in Ct normalized to control gene” value [1, 10] was 2.560, the “xCT, Fold change normalized” value [1, 10] was 5.90 and the “xCT, Percent change normalized” value [1, 10] was 590%. The “Lcn-2, Percent change normalized” value ([2]; 1 ng/ml, control gene HPRT) was 23,480%, the “Lcn-2, Percent change normalized” value ([2]; 1 ng/ml, control gene gamma-actin) was 23,522% and the “Lcn-2, Percent change normalized” value ([2]; 100 ng/ml, control gene HPRT) was 9,185%. The “Lcn-2, Percent change normalized” value ([2]; 100 ng/ml, control gene gamma-actin) was 18,958%.
For Tunicamycin, the “xCT, Absolute change normalized to Gamma-actin” value [1, 11] was 56.1, the “xCT, Absolute change normalized to HPRT” value [1, 11] was 23.1 and the “xCT, Change in Ct (not normalized)” value [1, 11] was 5.529. For the same compound, the “xCT, Change in Ct normalized to Gamma actin” value [1, 11] was 5.809, the “xCT, Change in Ct normalized to HPRT” value [1, 11] was 4.530 and the “xCT, Ct with agent” value [1, 11] was 25.060. The “xCT, Percent change normalized to Gamma-actin” value [1, 11] was 5,606%, the “xCT, Percent change normalized to HPRT” value [1, 11] was 2,310% and the “xCT expression increased by” value ([1]; 5 ng/ml, regardless of normalization to gamma-actin or HPRT) was “over 2,000%”. For the same compound, the “xCT, Change in Ct normalized to control gene” value [1, 12] was 4.540, the “xCT, Fold change normalized” value [1, 12] was 23.26 and the “xCT, Percent change normalized” value [1, 12] was 2,326%. The “xCT, Change in Ct normalized to control gene” value [1, 13] was 5.915, the “xCT, Fold change normalized” value [1, 13] was 60.34 and the “xCT, Percent change normalized” value [1, 13] was 6,034%. For the same compound, the “Lcn-2, Absolute change normalized to Gamma-actin” value ([2]; 5 ng/ml, 18 hours) was 64.6, the “Lcn-2, Absolute change normalized to HPRT” value ([2]; 5 ng/ml, 18 hours) was 32.3 and the “Lcn-2, Change in Ct (not normalized)” value ([2]; 5 ng/ml, 18 hours) was 5.734. The “Lcn-2, Change in Ct normalized to Gamma actin” value ([2]; 5 ng/ml, 18 hours) was 6.014, the “Lcn-2, Change in Ct normalized to HPRT” value ([2]; 5 ng/ml, 18 hours) was 5.015 and the “Lcn-2, Ct with agent” value ([2]; 5 ng/ml, 18 hours) was 27.123. The “Lcn-2, Percent change normalized to Gamma-actin” value ([2]; 5 ng/ml, 18 hours) was 6,460%, the “Lcn-2, Percent change normalized to HPRT” value ([2]; 5 ng/ml, 18 hours) was 3,230% and the “Lcn-2, Percent change normalized” value ([2]; 25 ng/ml, control gene HPRT) was 2,290%. For the same compound, the “Lcn-2, Percent change normalized” value ([2]; 25 ng/ml, control gene gamma-actin) was 5,940%.
With `OO` [H2O2, Hydrogen Peroxide] the “xCT, Change in Ct normalized to control gene” value [1, 14] was 2.484, the “xCT, Fold change normalized” value [1, 14] was 5.59 and the “xCT, Percent change normalized” value [1, 14] was 559%. For the same compound, the “xCT, Change in Ct normalized to control gene” value [1, 15] was 2.588, the “xCT, Fold change normalized” value [1, 15] was 6.01 and the “xCT, Percent change normalized” value [1, 15] was 601%. For the same compound, the “Lcn-2, Percent change normalized” value ([2]; 5 μM, control gene gamma-actin) was 15% and the “Lcn-2, Percent change normalized” value ([2]; 50 μM, control gene gamma-actin) was 19%.
